Measurements as given in US20100247659A1, “PHENYLPHTHALIMIDE ANALOGS FOR TREATING DIABETIC MACULAR EDEMA” (Charlesson, LLC, priority 2007, published 2010).

Tests used:
HUVEC [1] = test: MTT cell proliferation assay, HUVEC; format: cell-based; conditions: Homo sapiens, 72 h, treated 3 days, read-out: IC50, inhibition of proliferation of HUVEC
Excerpt: (§1) Cell culture: All cell culture media and supplements were purchased from Cellgro unless otherwise indicated. Human Umbilical Vein Endothelial Cells (HUVEC) were obtained from American Type Culture Collection and grown in the EBM-MV2 medium (Clonetics). Bovine Retinal Endothelial Cells (BREC) and pericytes were isolated according to a modified method as described previously (Wong, et al. Investig. Opthalmol. Vis. Sci. 1987, 28: 1767-1775). Twelve bovine eyes were obtained from a local slaughterhouse (Country Home Meats). The retinas were removed and washed four times in DMEM. Subsequently retinas were homogenized and centrifuged at 400×g for 10 min. The resultant pellet was resuspended in an isolation medium (DMEM with 100 IU/ml penicillin, 100 μg/ml streptomycin and 250 ng/ml amphotericin). Microvessels were trapped on an 85 μm nylon mesh (Locker Wire Weavers LTD) and transferred to a petri dish (Falcon) containing 10 ml of an enzyme cocktail which consisted of 600 μg/ml DNase I (Sigma), 165 μg/ml collagenase (Sigma) and 700 μg/ml Pronase E (EMD) and were incubated at 37° C. for 20 min. The resultant vessel fragments were trapped on a 53 μm nylon mesh (Locker Wire Weavers LTD), washed with the isolation medium and centrifuged at 400×g for 5 min. For selective culture of pericytes, the resultant pellet was resuspended in 10 ml of the pericyte growth medium and transferred into 75-cm^2 plastic tissue culture flasks (BD Biosciences). For selective culture of BRCECs, the resultant pellet was resuspended in 10 ml of the BRCEC growth medium and transferred into 75-cm^2 collagen-coated plastic tissue culture flasks (BD Biosciences). The BRCEC growth medium consisted of DMEM supplemented with 10% human serum, 1% glutamine, 1 mg/ml insulin, 550 μg/ml transferring, 670 ng/ml selenium, 100 IU/ml penicillin, 100 μg/ml streptomycin, 250 ng/ml amphotericin, 90 μg/ml heparin (Sigma) and 15 μg/ml endothelial cell growth supplement (Upstate). Cells were cultured at 37° C. and 5% CO2 with regular medium change every 3 days. Confluence cultures were passaged by detaching the cells with 0.25% trypsin and plated at a split 1:3. […] At passage 2, BRCECs and pericytes were stored in a liquid nitrogen tank for future use.
MTT assay: Cells were seeded at a density of 5×10^4 cells per well in 400 μl of growth medium in triplicate in 24-well plates (Nalge Nunc) or gelatin-coated 24-well plates. Twenty-four hours after seeding, the growth medium was replaced by a medium containing 1% FBS, with or without different concentrations of thalidomide or phenylphthalimide analogs. After the cells were treated for 48-72 h, MTT was added to a final concentration of 0.5 mg of medium per ml and incubated for 4 h at 37° C. in 5% CO2. An equal volume of solubilizer buffer is then added, following the protocol recommended by the manufacturer (Roche Molecular Biochemicals), the cells will be incubated overnight at 37° C. in 5% CO2. The absorbance of the formazen product was measured at a wavelength of 570 nm, with 750 nm as the (subtracted) reference wavelength.
Primary endothelial cells (HUVEC and BRCEC) and pericytes were treated with various concentrations of the compounds for 3 days. Viable cells were quantified using MTT assay and IC50 of each compound was calculated (mean±SD, n=3, FIG. 1). The IC50 values represent the means and SE of 3 independent experiments.

BRCEC = test: MTT cell proliferation assay, BRCEC; format: cell-based, bovine; conditions: Bos taurus, 72 h, treated 3 days, read-out: IC50, inhibition of proliferation of BRCEC
Excerpt: as §1
MTT assay: Cells were seeded at a density of 5×10^4 cells per well in 400 μl of growth medium in triplicate in 24-well plates (Nalge Nunc) or gelatin-coated 24-well plates. […] The absorbance of the formazen product was measured at a wavelength of 570 nm, with 750 nm as the (subtracted) reference wavelength.
Primary endothelial cells (HUVEC and BRCEC) and pericytes were treated with various concentrations of the compounds for 3 days. Viable cells were quantified using MTT assay and IC50 of each compound was calculated (mean±SD, n=3, FIG. 1). […]

HUVEC [2] = test: Endothelial cell migration (invasion) assay; format: cell-based; conditions: Homo sapiens, VEGF 4 ng/ml, invasion through Matrigel, read-out: IC50, inhibition of HUVEC migration
Description: Cells were allowed to invade for 22±1 hours. Cells were labeled post invasion with Calcein AM (4 μg/ml) and measured by detecting the fluorescence of cells that invaded through the BD Matrigel™ Matrix with an Applied Biosystems CytoFluor® 4000 plate reader at 485 nm excitation and 530 nm emission.
In this assay system, human endothelial cells are allowed to invade and are then labeled with fluorescent dye Calcein AM before quantification on a fluorometer.
In FIG. 2B, cells were seeded at 5×10^4/insert in EBM-2 containing 0.1% BSA in multi-well inserts. The assembled assays were allowed to proceed for 6 hours. The results are expressed as percent inhibition of migration as compared to control (no inhibitor). Data represents the average of 3 experiments, each run in triplicate. The bars represent mean±SD.

[3] = system: CAM blood vessel formation induced by VEGF/bFGF; test: Chicken chorioallantoic membrane (CAM) assay; format: in vivo; conditions: 200 ng VEGF-165/bFGF, 48 hr
Description: Chicken chorioallantoic membrane (CAM) assay: The fertile Leghorn chicken eggs were incubated in a humidified environment at 37.5° C. for 10 days. […] Anti-angiogenic compounds were then added 8 hr after the VEGF/bFGF at saturation to the same microbial testing disk, and the embryos were incubated for an additional 40 h. CAMs were then removed, quickly fixed with 4% paraformaldehyde in PBS, placed onto Petri dishes, and digitized images taken at 7.5× using a Nikon dissecting microscope and Scion Imaging system. A 1×1-cm grid was then added to the digital CAM images and the average number of vessels within 5-7 grids counted as a measure of vascularity.
CAM assay was used for in vivo anti-angiogenic studies. The fertile leghorn chicken eggs were allowed to incubate in a humidified environment at 37.5° C. for 10 days. […] Anti-angiogenic compounds were then added 8 hours after the VEGF/bFGF at saturation to the same microbial testing disk and embryos allowed to incubate for an additional 40 hours. After 48 hr, CAMs were removed, quickly fixed with 4% paraformaldehyde in PBS, placed onto Petri dishes, and digitized images taken at 7.5× using a Nikon dissecting microscope and Scion Imaging system. A 1×1-cm grid was then added to the digital CAM images and the average number of vessels within 5-7 grids counted as a measure of vascularity.
FIG. 14 is a table comparing the effect of Compound 4 on blood vessel formation. […] Data represent mean±SD of 8-16 samples from 2-3 separate experiments.

OIR rats = test: Retinal vascular leakage in OIR rats, intravitreal injection; format: in vivo, rat; conditions: for retinal vascular leakage as % of contralateral vehicle-injected eyes: intravitreal 5 μl 0.8 mM at P14, measured P16; for reduction of retinal vascular leakage vs vehicle control: single intravitreal 1.0 μg/eye (5 μl 0.8 mM) at P14, measured P16
Description: Induction of oxygen-induced retinopathy (OIR): Induction of OIR followed the procedure as described by Smith et al (Smith, et al. Invest. Opthalmol. Vis. Sci. 1994, 35: 101-111) with some modifications. Briefly, Newborn Brown Norway (BN) rats (Charles River Laboratories) at postnatal day 7 (P7) were exposed to hyperoxia (75% O2) for 5 days (P7-12) and then returned to normoxia (room air) to induce retinopathy.
(§2) Intravitreal injection of compounds: Thalidomide and the phenylphthalimide analogs Compounds 1, 2 and Compound 4 were dissolved in vehicle (BN rat serum) and sterilized by filtration. OIR and STZ-diabetic BN rats received an intravitreal injection of 0.5-2.0 μg/eye of (5 μl/eye, 0.1-0.4 mg/ml in BN rat serum) of thalidomide, Compounds 1, 2 or Compound 4 into the right eye and the equal volume of the BN rat serum into the left eye.
Measurement of vascular permeability: Vascular permeability was quantified by measuring leakage of FITC-albumin or Evans blue dye-albumin complex from the blood vessels into the retina as described (Xu, et al. Invest. Opthalmol. Vis. Sci. 2001, 42:789-794), with some modifications. Briefly, FITC-albumin was injected through the femoral vein and circulated for 2 h. The rats were then perfused via the left ventricle. The retinas were carefully dissected and homogenized. The concentrations of FITC-albumin were measured in a fluorometer and normalized by the total protein concentration in each retina and by plasma concentration of FITC-albumin.
To induce OIR, BN rats at postnatal day 7 (P7) were exposed to hyperoxia (75% O2) for 5 days (P7-P12) and then returned to normoxia. Normal control rats were kept in room air. At P14, the OIR BN rats received an intravitreal injection of 5 μl (0.8 mM in BN rat serum)/eye of thalidomide, Compound 1, Compound 2, or Compound 4 into the right eye and same volume of the BN rat serum into the left eye. Retinal vascular leakage was measured using FITC-labeled albumin as tracer. Normal non-OIR BN rats (n=6) served as baseline at P16.
To determine if the effect of Compound 4 on retinal vascular leakage was dose-dependent, the OIR rats at P14 received a single injection of Compound 4 with doses of 0.5, 0.75 and 1.0 μg/eye (5 μl of 0.10, 0.15 and 0.20 mg/ml).
In FIG. 7A, OIR rats received an intravitreal injection of 5 μl (0.8 mM in BN rat serum)/eye of thalidomide, Compounds 1, 2, or 4 in the right eye and the same volume of the vehicle in the left eye at P14. Vascular leakage was measured using the FITC-labeled albumin leakage method at P16 and expressed as fd/pr of protein in the retina (mean±SD, n=6). Each of the experimental group was compared with contralateral eye by Student's t test. Retinal vascular leakage in normal non-OIR rats at age of P16 were used as baseline at P16. In FIG. 7B, vascular leakage in the compound-injected eyes was expressed as a percentage of average vascular leakage in the vehicle-injected contralateral eyes. For the control, the average vascular leakage in vehicle-treated retinas was used as 100%. […] In FIGS. 7C and 7D, OIR rats received an intravitreal injection of Compound 4 or thalidomide with doses as indicated at P14. Permeability was measured at P16 and expressed as fd/pr of protein in the retina (mean±SD, n=6). Each of the experimental group was compared with the vehicle control by the paired Student's t test. “Normal” is represented as the permeability in normal rats at P16.

STZ-diabetic rats = test: Retinal vascular leakage in STZ-diabetic rats, intravitreal injection; format: in vivo, rat; conditions: for reduction of retinal vascular leakage vs vehicle control: single intravitreal 1.0 μg/eye (5 μl 0.8 mM), 48 h; for reduction of retinal vascular permeability: two days
Description: Induction of diabetes by streptozotocin (STZ): BN rats (8 weeks of age) were given a single intraperitoneal injection of fresh made streptozotocin (STZ) (Sigma, 50 mg/kg in 10 mM of citrate buffer, pH 4.5) following an overnight fasting. Control rats received an injection of citrate buffer alone. Blood glucose levels were checked at 24 hours following the last STZ injection and once a week thereafter, and only the animals with glucose levels higher than 350 mg/dl were considered diabetic. Rats with hyperglycemia for 2 weeks were used for these experiments.
as §2
Evans blue dye (Sigma) was dissolved in 0.9% saline (30 mg/ml), sonicated for 5 min and filtered through a 0.45-μm filter (Millipore). The rats were then anesthetized, and Evans blue (30 mg/kg) was injected over 10 s through the femoral vein using a glass capillary under microscopic inspection. Evans blue non-covalently binds to plasma albumin in the blood stream. Immediately after Evans blue infusion, the rats turned visibly blue, confirming their uptake and distribution of the dye. The rats were kept on a warm pad for 2 h to ensure the complete circulation of the dye. Then the chest cavity was opened, and the rats were perfused via the left ventricle with 1% paraformaldehyde in citrate buffer (pH 4.2) which was pre-warmed to 37° C. to prevent vasoconstriction. The perfusion lasted 10 min under the physiological pressure of 120 mmHg, in order to clear the dye from the vessel. Immediately after perfusion, the eyes were enucleated and the retinas were carefully dissected under an operating microscope. Evans blue dye was extracted by incubating each sample in 150 μl of formamide for 18 h at 70° C. The extract was centrifuged (Beckman) at 70,000 rpm (Rotor type: TLA 100.3) for 20 min at 4° C. Absorbance was measured using 100 μl of the supernatant at 620 nm by using Spectrophotometer DU800 (Beckman). The concentration of Evans blue in the extract was calculated from a standard curve of Evans blue in formamide and normalized by the total protein concentration in each sample. Results were expressed in mg of Evans blue per mg of total protein content.
Diabetes was induced by injection of STZ (50 mg/kg, i.v.) into adult BN rats after overnight fasting. Blood glucose levels were monitored at the second day after the injection and once a week thereafter. Rats with glucose levels above 350 mg/dl were considered as diabetic and used for the study. thalidomide, Compounds 1, 2 and 4 were separately injected into the vitreous space (5 μl, 0.8 mM in BN rat serum) of the right eye of STZ-diabetic rats 2 wks after the induction of diabetes. At 48 h after the injection, retinal vascular leakage was measured using the Evans blue-albumin leakage method.
To determine the dose-response relationship of the effect of Compound 4 and thalidomide, the STZ-diabetic rats received an intravitreal injection of Compound 4 and thalidomide with doses of 0.5, 0.75 and 1.0 μg/eye (5 μl/eye of 0.10, 0.15 and 0.20 mg/ml), respectively.

Compound | IC50 (HUVEC [1]) | IC50 (BRCEC) | IC50 (HUVEC [2]) | ED50, dose reducing blood vessel number to 50% of VEGF/bFGF alone group [3] | retinal vascular leakage as % of contralateral vehicle-injected eyes (OIR rats) | reduction of retinal vascular leakage vs vehicle control (OIR rats) | reduction of retinal vascular leakage vs vehicle control (STZ-diabetic rats) | reduction of retinal vascular leakage (OIR rats; dose of 0.5 μg/eye) | reduction of retinal vascular leakage (OIR rats; doses of 0.75 and 1.0 μg/eye) | reduction of retinal vascular permeability (STZ-diabetic rats; dose of 0.5 μg/eye) | reduction of retinal vascular permeability (STZ-diabetic rats; doses of 0.75 and 1.0 μg/eye)
CC(C)c1cccc(C(C)C)c1N1C(=O)c2ccc(N)cc2C1=O [Compound 4] | 2 µM | 1.83 µM | < 1 µM | 6.5 μg/embryo | 61% | 40% | ~100% |  |  |  | 
O=C1CCC(N2C(=O)c3ccccc3C2=O)C(=O)N1 (stereo not drawn) [thalidomide] | > 100 µM | > 32 µM | > 100 µM | > 100 μg/embryo | 82% | 18% | 77% | not at the dose of 0.5 μg/eye | significantly reduced vascular leakage | not at 0.5 μg/eye | showed an inhibitory effect
